Experimental data published in patent US10144730B2, “Inhibitors of c-Jun-N-terminal kinase (JNK)” (Dana-Farber Cancer Institute, Inc., priority 2011, dated 2018).

Key:
Type in all cases: cell-based
c-Jun phosphorylation = assay: LanthaScreen TR-FRET cell assay for c-Jun phosphorylation in HeLa cells; conditions: Homo sapiens; Hela cells, TNF-α stimulation; read-out: p-c-Jun EC50 (nM) Hela
Description: Phosphorylation was determined by measuring the time resolved FRET (TR-FRET) between a terbium labeled phospho-c-Jun specific antibody and GFP. The cells were plated in white tissue culture treated 384 well plates at a density of 10,000 cell per well in 32 μL assay medium (Opti-MEM®, supplemented with 0.5% charcoal/dextran-treated FBS, 100 U/ml penicillin and 100 μg/ml streptomycin, 0.1 mM nonessential amino acids, 1 mM sodium pyruvate, 25 mM Hepes, pH 7.3, and lacking phenol red). After overnight incubation, cells were pretreated for 90 minutes with compound (at indicated concentration) diluted in 4 μL assay buffer followed by 30 min of stimulation with 5 ng/ml of TNF-α in 4 μL assay buffer (final assay volume was 40 μl). The medium was then removed by aspiration, and the cells were lysed by adding 20 μl of lysis buffer (20 mM Tris-HCl, pH 7.6, 5 mM EDTA, 1% Nonidet P-40 substitute, 5 mM NaF, 150 mM NaCl, and 1:100 protease and phosphatase inhibitor mix, SIGMA P8340 and P2850, respectively). The lysis buffer included 2 nM of the terbium-labeled anti-c-Jun (pSer73) detection antibodies (Life Technologies). After allowing the assay to equilibrate for 60 minutes at room temperature, TR-FRET emission ratios were determined on a BMG Pherastar fluorescence plate reader (BMG Labtech, Cary, N.C.) using the following parameters: excitation at 340 nm; emission at 520 nm and 490 nm; 100 μs lag time; 200 μs integration time; and emission ratio=Em520/Em490. All data were analyzed and plotted using Graphpad Prism 4.
In parallel with biochemical evaluation, the ability of the compounds to inhibit JNK activity in cells was investigated using two independent assays formats. This is a critical issue because there are several reported JNK inhibitors with nanomolar biochemical potency that translate into micromolar cellular inhibitors. The most well characterized direct phosphorylation substrate of JNK is the transcription factor c-Jun.

phosphorylation of STAT3 = assay: High-throughput microscopy, phosphorylation of STAT3; conditions: Homo sapiens, A-375, A375 cells, IL-6 stimulation, read-out: Cellular EC50 pSTAT3
Description: (§1) A375 cells were stimulated with anisomycin (FIGS. 14A and 14C to 14F), IGF-1 (FIG. 14B), IL-6 (FIG. 14G), and TNF-α (FIG. 14H) for sixty minutes. The output of multiple signaling pathways was measured using high throughput microscopy at multiple concentrations of four JNK inhibitors and a control compound specific to each pathway DMSO (FIG. 14A), MK2206 (allosteric Akt inhibitor, Haoyuan Chemexpress Co., Limited. Hirai, et al., 2010) (FIG. 14B), PD0325901 (allosteric Mek inhibitor, Haoyuan Chemexpress Co., Limited. Barrett, et al., 2008) (FIGS. 14C and 14D), SB239063 (ATP-competitive p38 inhibitor, Haoyuan Chemexpress Co., Limited. Underwood et al., 2000) (FIGS. 14E and 14F), KIN001-040 (ATP-competitive JAK1,2,3 inhibitor, Haoyuan Chemexpress Co., Limited. Thompson et al., 2002) (FIG. 14G), and KIN001-208 (IKK inhibitor VIII, Haoyuan Chemexpress Co., Limited., Murata, et al., 2004) (FIG. 14H).
(§2) Cells were plated at 7500 cells/well in 96-well microscopy plates (Corning) in recommended media for 24 hours, and then starved in media lacking serum for 16 hours. Cells were pre-treated for 180 minutes with 10-fold stock solutions of JNK inhibitors and for 10 min with control compounds MK2206, PD0325901, SB239063, KIN040, and KIN208 and treated with 10-fold stock solutions of IGF-1, IL-6, TNF-α (all PeproTech), or anisomycin for 60 minutes. Cells were fixed in 2% paraformaldehyde for 10 min at room temperature and washed with PBS-T (Phosphate Buffered Saline, 0.1% Tween 20). Cells were permeabilized in methanol for 10 min at room temperature, washed with PBS-T, and blocked in Odyssey Blocking Buffer (LI-COR Biosciences) for 1 hour at room temperature. Cells were incubated overnight at 4° C. with antibody specific for Erk1/2(pT202/pY204), Akt(pS473), c-Jun(pS73), pP38(T180/Y182) and pSTAT3(Y705) (Cell Signaling Technology), pRSK1(S380) and pMSK1(S376) (Epitomics), and NF-κB (Santa Cruz Biotechnology) diluted 1:400 in Odyssey Blocking Buffer. Cells were washed three times in PBS-T and incubated with rabbit-specific secondary antibody labeled with Alexa Fluor 647 (Invitrogen) diluted 1:2000 in Odyssey Blocking Buffer. Cells were washed once in PBS-T and once in PBS and incubated in 250 ng/ml Hoechst 33342 (Invitrogen) and 1:1000 Whole Cell Stain (blue; Thermo Scientific) solution. Cells were washed twice with PBS and imaged in an imageWoRx high-throughput microscope (Applied Precision). Data were plotted using DataPflex. […]

phosphorylation of p38 = assay: High-throughput microscopy, phosphorylation of p38; conditions: Homo sapiens, A-375, A375 cells, anisomycin stimulation, read-out: Cellular EC50 pP38
Description: as §1, §2

phosphorylation of Erk = assay: High-throughput microscopy, phosphorylation of Erk; conditions: Homo sapiens, A-375, A375 cells, anisomycin stimulation, read-out: Cellular EC50 pErk
Description: as §1, §2

SMILES	EC50 (c-Jun phosphorylation)	EC50 (phosphorylation of STAT3)	EC50 (phosphorylation of p38)	EC50 (phosphorylation of Erk)
Cc1cc(NC(=O)c2cccc(NC(=O)/C=C/CN(C)C)c2)ccc1Nc1nccc(-c2cccnc2)n1 [JNK-IN-8]	486 nM	> 10 µM	> 10 µM	> 10 µM
CN(C)C/C=C/C(=O)Nc1cccc(C(=O)Nc2ccc(Nc3nccc(/C(C#N)=C4\Nc5ccccc5S4)n3)cc2)c1 [JNK-IN-12]	605 nM	> 10 µM	> 10 µM	> 10 µM
